Experimental data taken from US20040038222A1 (priority 2001, published 2004).

Tests used:
[1] = tested on: C57BL/6J and C3H/HeJ primary bone marrow-derived macrophages
KiflC in NIH3T3 cells = conditions: cited from earlier work
Chain of KiflC in NIH3T3 cells (O35071 whole entry): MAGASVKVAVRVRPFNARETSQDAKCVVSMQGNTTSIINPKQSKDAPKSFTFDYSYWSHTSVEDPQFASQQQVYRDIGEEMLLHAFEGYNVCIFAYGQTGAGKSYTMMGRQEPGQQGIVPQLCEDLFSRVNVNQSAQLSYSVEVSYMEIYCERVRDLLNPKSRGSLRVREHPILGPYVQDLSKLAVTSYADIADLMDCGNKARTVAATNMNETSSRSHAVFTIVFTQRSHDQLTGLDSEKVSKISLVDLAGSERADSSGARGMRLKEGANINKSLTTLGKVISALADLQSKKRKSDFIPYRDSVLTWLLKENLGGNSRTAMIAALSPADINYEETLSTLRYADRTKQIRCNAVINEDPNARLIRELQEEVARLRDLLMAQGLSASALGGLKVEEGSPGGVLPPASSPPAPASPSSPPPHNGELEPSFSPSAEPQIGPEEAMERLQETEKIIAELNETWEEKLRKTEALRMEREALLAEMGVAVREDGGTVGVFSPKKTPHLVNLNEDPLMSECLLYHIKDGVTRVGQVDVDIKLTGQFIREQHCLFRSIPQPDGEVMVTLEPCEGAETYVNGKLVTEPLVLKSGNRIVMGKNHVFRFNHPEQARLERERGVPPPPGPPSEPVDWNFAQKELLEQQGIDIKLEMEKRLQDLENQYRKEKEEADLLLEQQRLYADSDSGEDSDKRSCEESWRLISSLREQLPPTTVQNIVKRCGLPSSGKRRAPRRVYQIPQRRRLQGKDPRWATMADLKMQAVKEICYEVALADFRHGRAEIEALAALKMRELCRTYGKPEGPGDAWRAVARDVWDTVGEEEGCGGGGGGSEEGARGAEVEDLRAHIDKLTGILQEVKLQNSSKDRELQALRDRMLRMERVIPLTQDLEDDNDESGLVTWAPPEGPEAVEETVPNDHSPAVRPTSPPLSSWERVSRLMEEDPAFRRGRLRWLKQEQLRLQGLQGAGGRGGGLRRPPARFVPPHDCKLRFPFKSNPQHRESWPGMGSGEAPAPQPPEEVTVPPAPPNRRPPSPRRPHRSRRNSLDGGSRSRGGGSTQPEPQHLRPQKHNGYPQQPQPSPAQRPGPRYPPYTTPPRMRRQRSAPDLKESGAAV

**Q.** Which “Susceptibility of susceptible macrophages to intoxication with LF in the presence of BFA” value [1] does the source give for brefeldin A [BFA] here?
**A.** The value was “unaltered”.

**Q.** What about the “Relocalization of KiflC” value (KiflC in NIH3T3 cells) of the same substance?
**A.** The value was “dramatic relocalization of KiflC to the Endoplasmic Reticulum”.
